Measurements as given in patent US8802597B2, “Herbicidal pyrimidines” (E I du Pont de Nemours and Company, priority 2003, dated 2014).
Like-named read-outs stand apart in the source and are kept apart here.

Columns and labels:
Assay type in all cases: in vivo
[1] = test system: Surinam grass (Brachiaria decumbens); assay: Test B pre/postemergence; settings: Urochloa decumbens; for pest or weed control at 62 g/ha: 62 g ai/ha; for pest or weed control at 250 g/ha: 250 g ai/ha
Outline: (§1)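 Under greenhouse conditions, seeded pots and young plants (1- to 4-leaf, 2 to 18 cm) were treated at the same time with test chemicals in a non-phytotoxic solvent mixture containing surfactant. Response was assessed visually after 13 to 15 days, from 0 (no effect) to 100 (complete control).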

[2] = test system: barnyardgrass (Echinochloa crus-galli); assay: Test B pre/postemergence; settings: Echinochloa crus-galli; for pest or weed control at 62 g/ha: 62 g ai/ha; for pest or weed control at 250 g/ha: 250 g ai/ha
Outline: as §1

[3] = test system: cocklebur (Xanthium strumarium); assay: Test B pre/postemergence; settings: Xanthium strumarium; for pest or weed control at 62 g/ha: 62 g ai/ha; for pest or weed control at 250 g/ha: 250 g ai/ha
Outline: as §1

corn (Zea mays) = assay: Test B pre/postemergence; settings: Zea mays; for Corn plant response rating (crop injury, 0 = no effect, 100 = complete kill) at 250 g/ha: 250 g ai/ha
Outline: as §1

[4] = test system: crabgrass (Digitaria sanguinalis); assay: Test B pre/postemergence; settings: Digitaria sanguinalis; for pest or weed control at 62 g/ha: 62 g ai/ha; for pest or weed control at 250 g/ha: 250 g ai/ha
Outline: as §1

[5] = test system: giant foxtail (Setaria faberii); assay: Test B pre/postemergence; settings: Setaria faberi; for pest or weed control at 62 g/ha: 62 g ai/ha; for pest or weed control at 250 g/ha: 250 g ai/ha
Outline: as §1

[6] = test system: lambsquarters (Chenopodium album); assay: Test B pre/postemergence; settings: Chenopodium album; for pest or weed control at 62 g/ha: 62 g ai/ha; for pest or weed control at 250 g/ha: 250 g ai/ha
Outline: as §1

[7] = test system: morningglory (Ipomoea coccinea); assay: Test B pre/postemergence; settings: Ipomoea; for pest or weed control at 62 g/ha: 62 g ai/ha; for pest or weed control at 250 g/ha: 250 g ai/ha
Outline: as §1

[8] = test system: pigweed (Amaranthus retroflexus); assay: Test B pre/postemergence; settings: Amaranthus retroflexus; for pest or weed control at 62 g/ha: 62 g ai/ha; for pest or weed control at 250 g/ha: 250 g ai/ha
Outline: as §1

[9] = test system: velvetleaf (Abutilon theophrasti); assay: Test B pre/postemergence; settings: Abutilon theophrasti; for pest or weed control at 62 g/ha: 62 g ai/ha; for pest or weed control at 250 g/ha: 250 g ai/ha
Outline: as §1

[10] = test system: wheat (Triticum aestivum); assay: Test B pre/postemergence; settings: Triticum aestivum; for plant injury at 62 g/ha: 62 g ai/ha; for plant injury at 250 g/ha: 250 g ai/ha
Outline: as §1

[11] = test system: blackgrass (Alopecurus myosuroides); assay: Test B postemergence; settings: Alopecurus myosuroides, post-emergence
Outline: as §1

wild oat (Avena fatua) = assay: Test B postemergence; settings: Avena fatua, post-emergence
Outline: as §1

[12] = test system: barnyardgrass (Echinochloa crus-galli); assay: Test B flooded paddy test; settings: Echinochloa crus-galli, Flood, 1000 g ai/ha; scale 0 (no effect) to 100 (complete control); read-out: Plant response rating, Barnyardgrass
Outline: (§2)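 Rice, umbrella sedge, duck salad and barnyardgrass grown to 2-leaf stage under flooded paddy conditions and treated with formulated test chemicals. Kept in greenhouse 13–15 days, then visually rated against untreated controls on a 0–100 scale (0 no effect, 100 complete control).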

[13] = test system: duck salad (Heteranthera limosa); assay: Test B flooded paddy test; settings: Heteranthera limosa, Flood, 1000 g ai/ha; scale 0 to 100; read-out: Plant response rating, Ducksalad
Outline: as §2

rice (Oryza sativa) = assay: Test B flooded paddy test; settings: Oryza sativa, Flood, 1000 g ai/ha; scale 0 to 100; read-out: Plant response rating, Rice
Outline: as §2

[14] = test system: umbrella sedge (Cyperus difformis); assay: Test B flooded paddy test; settings: Cyperus difformis, Flood, 1000 g ai/ha; scale 0 to 100; read-out: Plant response rating, Sedge, Umbrella
Outline: as §2

[15] = pre-emergence, Preemergence, scale 0 to 100 (0 no effect, 100 complete control), read-out: Plant response rating, Barnyardgrass
[16] = pre-emergence, Preemergence, scale 0 to 100 (0 no effect, 100 complete control), read-out: Plant response rating, Wheat

In the case of `CCOC(=O)c1nc(C2CC2)nc(N)c1Cl` [Compound 4, ethyl 6-amino-5-chloro-2-cyclopropyl-4-pyrimidinecarboxylate], the pest or weed control at 62 g/ha ([1]; post-emergence, Postemergence, scale 0 to 100 (0 no effect, 100 complete control), read-out: Surinam Grass plant response rating) is reported as 90%, the pest or weed control at 250 g/ha ([1]; post-emergence, Postemergence, scale 0 to 100, read-out: Plant response rating, Surinam Grass) is reported as 90% and the pest or weed control at 250 g/ha ([1]; pre-emergence, Preemergence, scale 0 to 100 (0 no effect, 100 complete control), read-out: Plant response rating, Surinam Grass) is reported as 90%. For the same molecule, the pest or weed control at 62 g/ha ([1]; pre-emergence, Preemergence, scale 0 to 100, 0 no effect, 100 complete control, read-out: Plant response rating, Surinam Grass) was 40%, the pest or weed control at 62 g/ha ([2]; post-emergence, Postemergence, scale 0 to 100 (0 no effect, 100 complete control), read-out: Barnyardgrass plant response rating) was 70% and the pest or weed control at 250 g/ha ([2]; post-emergence, Postemergence, scale 0 to 100, read-out: Plant response rating, Barnyardgrass) was 90%. For the same molecule, the pest or weed control at 62 g/ha [2, 15] was 30%, the pest or weed control at 250 g/ha [2, 15] was 90% and the pest or weed control at 62 g/ha ([3]; post-emergence, Postemergence, scale 0 to 100 (0 no effect, 100 complete control), read-out: Cocklebur plant response rating) was 90%. The pest or weed control at 250 g/ha ([3]; post-emergence, Postemergence, scale 0 to 100, read-out: Plant response rating, Cocklebur) was 100%, the pest or weed control at 62 g/ha ([3]; pre-emergence, Preemergence, scale 0 to 100, 0 no effect, 100 complete control, read-out: Plant response rating, Cocklebur) was 80% and the pest or weed control at 250 g/ha ([3]; pre-emergence, Preemergence, scale 0 to 100 (0 no effect, 100 complete control), read-out: Plant response rating, Cocklebur) was 100%. For the same molecule, the plant injury at 62 g/ha (corn (Zea mays); post-emergence, Postemergence, 62 g ai/ha, scale 0 to 100 (0 no effect, 100 complete control), read-out: Corn plant response rating) was 50%, the Corn plant response rating (crop injury, 0 = no effect, 100 = complete kill) at 250 g/ha (corn (Zea mays); post-emergence, Postemergence, scale 0 to 100) was 90% and the Corn plant response rating (crop injury, 0 = no effect, 100 = complete kill) at 62 g/ha (corn (Zea mays); pre-emergence, Preemergence, 62 g ai/ha, scale 0 to 100, 0 no effect, 100 complete control) was 0%. It also gave a Corn plant response rating (crop injury, 0 = no effect, 100 = complete kill) at 250 g/ha (corn (Zea mays); pre-emergence, Preemergence, scale 0 to 100 (0 no effect, 100 complete control)) of 80%, a pest or weed control at 62 g/ha ([4]; post-emergence, Postemergence, scale 0 to 100 (0 no effect, 100 complete control), read-out: Crabgrass plant response rating) of 80% and a pest or weed control at 250 g/ha ([4]; post-emergence, Postemergence, scale 0 to 100, read-out: Plant response rating, Crabgrass) of 90%. It also gave a pest or weed control at 62 g/ha ([4]; pre-emergence, Preemergence, scale 0 to 100, 0 no effect, 100 complete control, read-out: Plant response rating, Crabgrass) of 70%, a pest or weed control at 250 g/ha ([4]; pre-emergence, Preemergence, scale 0 to 100 (0 no effect, 100 complete control), read-out: Plant response rating, Crabgrass) of 90% and a pest or weed control at 62 g/ha ([5]; post-emergence, Postemergence, scale 0 to 100 (0 no effect, 100 complete control), read-out: Foxtail, Giant plant response rating) of 80%. It also gave a pest or weed control at 250 g/ha ([5]; post-emergence, Postemergence, scale 0 to 100, read-out: Plant response rating, Foxtail, Giant) of 90%, a pest or weed control at 250 g/ha ([5]; pre-emergence, Preemergence, scale 0 to 100 (0 no effect, 100 complete control), read-out: Plant response rating, Foxtail, Giant) of 80% and a pest or weed control at 62 g/ha ([5]; pre-emergence, Preemergence, scale 0 to 100, 0 no effect, 100 complete control, read-out: Plant response rating, Foxtail, Giant) of 10%. It also gave a pest or weed control at 62 g/ha ([6]; post-emergence, Postemergence, scale 0 to 100 (0 no effect, 100 complete control), read-out: Lambsquarters plant response rating) of 100%, a pest or weed control at 250 g/ha ([6]; post-emergence, Postemergence, scale 0 to 100, read-out: Plant response rating, Lambsquarters) of 100% and a pest or weed control at 62 g/ha ([6]; pre-emergence, Preemergence, scale 0 to 100, 0 no effect, 100 complete control, read-out: Plant response rating, Lambsquarters) of 90%. For the same molecule, the pest or weed control at 250 g/ha ([6]; pre-emergence, Preemergence, scale 0 to 100 (0 no effect, 100 complete control), read-out: Plant response rating, Lambsquarters) was 100%, the pest or weed control at 62 g/ha ([7]; post-emergence, Postemergence, scale 0 to 100 (0 no effect, 100 complete control), read-out: Morningglory plant response rating) was 90% and the pest or weed control at 250 g/ha ([7]; post-emergence, Postemergence, scale 0 to 100, read-out: Plant response rating, Morningglory) was 100%. It also gave a pest or weed control at 62 g/ha ([7]; pre-emergence, Preemergence, scale 0 to 100, 0 no effect, 100 complete control, read-out: Plant response rating, Morningglory) of 60%, a pest or weed control at 250 g/ha ([7]; pre-emergence, Preemergence, scale 0 to 100 (0 no effect, 100 complete control), read-out: Plant response rating, Morningglory) of 100% and a pest or weed control at 62 g/ha ([8]; post-emergence, Postemergence, scale 0 to 100 (0 no effect, 100 complete control), read-out: Pigweed plant response rating) of 100%. For the same molecule, the pest or weed control at 250 g/ha ([8]; post-emergence, Postemergence, scale 0 to 100, read-out: Plant response rating, Pigweed) was 100%, the pest or weed control at 62 g/ha ([8]; pre-emergence, Preemergence, scale 0 to 100, 0 no effect, 100 complete control, read-out: Plant response rating, Pigweed) was 90% and the pest or weed control at 250 g/ha ([8]; pre-emergence, Preemergence, scale 0 to 100 (0 no effect, 100 complete control), read-out: Plant response rating, Pigweed) was 100%. For the same molecule, the pest or weed control at 62 g/ha ([9]; post-emergence, Postemergence, scale 0 to 100 (0 no effect, 100 complete control), read-out: Velvetleaf plant response rating) was 70%, the pest or weed control at 250 g/ha ([9]; post-emergence, Postemergence, scale 0 to 100, read-out: Plant response rating, Velvetleaf) was 100% and the pest or weed control at 62 g/ha ([9]; pre-emergence, Preemergence, scale 0 to 100, 0 no effect, 100 complete control, read-out: Plant response rating, Velvetleaf) was 80%. For the same molecule, the pest or weed control at 250 g/ha ([9]; pre-emergence, Preemergence, scale 0 to 100 (0 no effect, 100 complete control), read-out: Plant response rating, Velvetleaf) was 90%, the plant injury at 62 g/ha ([10]; post-emergence, Postemergence, scale 0 to 100 (0 no effect, 100 complete control), read-out: Wheat plant response rating) was 40% and the plant injury at 250 g/ha ([10]; post-emergence, Postemergence, scale 0 to 100, read-out: Plant response rating, Wheat) was 80%. The plant injury at 62 g/ha [10, 16] was 50%, the plant injury at 250 g/ha [10, 16] was 70% and the pest or weed control at 62 g/ha ([11]; 62 g ai/ha, scale 0 to 100 (0 no effect, 100 complete control), read-out: Blackgrass plant response rating) was 70%. The pest or weed control at 250 g/ha ([11]; 250 g ai/ha, scale 0 to 100, read-out: Plant response rating, Blackgrass) was 90%, the pest or weed control at 62 g/ha (wild oat (Avena fatua); 62 g ai/ha, scale 0 to 100 (0 no effect, 100 complete control), read-out: Oat, Wild plant response rating) was 50% and the pest or weed control at 250 g/ha (wild oat (Avena fatua); 250 g ai/ha, scale 0 to 100, read-out: Plant response rating, Oat, Wild) was 80%. It also gave a pest or weed control at 1000 g/ha [12] of 90%, a pest or weed control at 1000 g/ha [13] of 100% and a plant injury at 1000 g/ha (rice (Oryza sativa)) of 80%. The pest or weed control at 1000 g/ha [14] was 80%.
